Where two headings read alike, the source gives them in different places.
Columns and labels:
[1] = cited from earlier work
[2] = Microfluidic evaluation of antiperspirant efficacy: clog formation at the confluence of secondary (sweat) channel and main channel, seen by phase contrast microscopy
Excerpt: The invention also has for object a method for evaluating the efficacy of an antiperspirant product comprising the following steps: • supplying an evaluation system 1 such as described hereinabove; • injecting natural and/or artificial sweat into the or each secondary channel 9 of the microfluidic chip 5 from the sweat source 3; • injecting at least one antiperspirant product into the main channel 7; • determining at least one physical-chemical parameter that represents the efficacy of the antiperspirant agent considered; and • evaluating the efficacy of the antiperspirant product using the determined physical-chemical parameter.
The step of filling is followed by a step of distributing, during which the antiperspirant product flowing in the main channel 7 and the sweat flowing in the secondary channel or channels 9 react together, in particular on the zones of confluence between the sweat flowing in the secondary channel or channels 9 and the antiperspirant product flowing in the main channel 7. According to the efficacy of the antiperspirant product, during this step of distributing, the interaction between the sweat and the antiperspirant product leads to the formation of clogs at the outlet 25 of the secondary channel or channels 9.
These values can in particular be Boolean values. For example, the physical-chemical parameter measured is the formation or not of a clog, and it is concluded that the antiperspirant product tested is effective if the formation of a clog is observed during the method. If no formation of a clog is observed, non-efficacy is concluded for the antiperspirant product.
These tests were conducted with the microfluidic chip 4 described hereinabove, and by using as imaging tool 45 a phase contrast microscope.
The injection of the sweat and of the antiperspirant product was carried out according to the sequence described in the table 1.
It is considered that the antiperspirant product is not effective when no clog is formed in the secondary channel 9. In this case, the sweat of the secondary channel 9 can freely flow in the main channel 7.

Row | Substance | antiperspirant efficacy in vivo ([1]; in vivo) | Evaluation result [2] | antiperspirant efficacy in vivo ([1]; known to be (not) effective antiperspirant agent in vivo) | Evaluation result ([2]; concentration 5%, injection sequence of table 1, effective = formation of a clog in secondary channel preventing sweat flow, not effective = no clog formed) | Evaluation result ([2]; concentration 15%, injection sequence of table 1, effective = formation of a clog in secondary channel preventing sweat flow, not effective = no clog formed)
1 | Aluminum Zirconium Glycine [AZG] | effective | Effective | – | – | –
2 | aluminum chlorohydrate [ACH] | – | – | effective | Effective | Effective

From patent publication US9943844B2, “Microfluidic evaluation system for evaluating the efficacy of an antiperspirant product and associated method” (L'OREAL, priority 2013, dated 2018)
